Experimental data from patent publication US20240099295A1, “CELL TREATMENT AGENT” (AYA Inc., priority 2021, published 2024).

What was measured:
Format in all cases: cell-based
[1] = tested on: Mouse malignant melanoma highly metastatic strain cell; test: Cell protective effect: cell survival during preservation under refrigeration (trypan blue excretion test); settings: inhibitor b 0.25 mg/mL; 5% glucose solution; refrigerator 4° C.
Description: Using a 5% glucose solution as a conditioning solution, nafamostat mesilate (Fusan for Injection, available from Nichi-Iko Corporation), which is a proteolytic enzyme inhibitor, was added to the conditioning solution in the concentrations shown in Table 8 (in Fusan for Injection (available from Nichi-Iko Corporation), use of a 5% glucose solution as a dilution solution is specified) to prepare cell preservation solutions. To each cell preservation solution, cells of mouse malignant melanoma high metastatic strain were added at a concentration of 10^6 cells/ml and left in a refrigerator set at 4° C. for 48 hours, and then the average survival rate (%) of cells was determined in the same manner as in Experimental Example of (1-4-1-1). The results are of N=4.

[2] = tested on: rat corneal epithelial cells; test: Cell detaching and suspending effect (Experimental Example 4); settings: dextran aqueous solution (MW 35000-50000), concentrations shown in Table 13; observed over time
Description: A culture solution in which FBS was added to a normal serum-free cell culture solution in a concentration of 10% (10% FBS cell culture solution) was prepared in a culture dish. To this, rat corneal epithelial cells were added at 10^6 cells/ml and cultured for 24 hours under normal cell culture conditions (37° C., CO2 concentration of 5%, humidity of 100%) to make the cultured cells fully adhere to the culture dish wall which is a scaffold.
The culture solution in the culture dish on which cultured cells obtained as described above had adhered was replaced with each of dextran sulfate aqueous solutions and a dextran aqueous solution, which are respectively obtained by dissolving dextran sulfate (Dextran sodium sulfate MW 36000-50000, available from FUJIFILM Wako Pure Chemical Corporation) and dextran (Dextran MW 35000-50000, available from FUJIFILM Wako Pure Chemical Corporation) in purified water and have concentrations shown in Table 13, and the resultant culture solutions were continuously cultured under normal cell culture conditions (37° C., CO2 concentration of 5%, humidity of 100%). For each adherent cell, detachment and suspension of adherent cells from the dish wall was observed over time. For determination of detachment and suspension, the culture dish was gently shaken manually to observe whether the cells were detached from the dish wall and suspended, and the case where 90% or more of the cells were detached and suspended was determined as detachment and suspension of adherent cells. The results are of N=4. In Table 13, “∘” means that the cells were detached and suspended, and “x” means that the cells were not detached and suspended.

[3] = tested on: Chinese hamster fibroblast; test: Cell protective effect: cell survival during preservation (trypan blue excretion test); settings: for Average survival rate at 24 hours / Average survival rate at 72 hours: Ringer's solution; for Average survival rate at 24 hours: normal temperature (22° C.); for Average survival rate at 72 hours: refrigerator 4° C.
Description: (§1) Using a normal serum-free cell culture solution without FBS or a Ringer's solution (Otsuka Pharmaceutical Co., Ltd., Lactec Injection, Japanese Pharmacopoeia, Sodium L-lactate Ringer's solution) as a conditioning solution for use, for example, in preservation and transportation of cells, sodium alginate (Na alginate) (Fuji Chemical Industry Co., Ltd. Snow Algin SSL, viscosity of 1% aqueous solution is 30 mPa·s at 20° C.) was added to the conditioning solution in the concentrations shown in Table 1 to prepare cell preservation solutions. To each cell preservation solution, the above-described cells were added at a concentration of 10^6 cells/ml to satisfy the conditions shown in Table 1, and the resultant solution was left to stand in a room at normal temperature (22° C.) for 24 hours, and then whether cells were alive or dead was determined, and rates of viable cells (average survival rate (%)) were calculated and compared. Cell viability was determined by the trypan blue excretion test that is the ordinary method of confirming cell viability. The excretion test was performed according to the method described in “Denizot F., et al., Rapid colorimetric assay for cell growth and survival. Modifications to the tetrazolium dye procedure giving improved sensitivity and reliability. J. Immunol. Methods, 89, 271-277 (1986)”. The results are of N=4.
(§2) The average survival rate (%) was determined in the same manner as in Experimental Example (1-1-1) except that the preservation conditions were changed to leaving still for 72 hours in a refrigerator at a set temperature of 4° C. The results are of N=4.

[4] = tested on: Rat corneal epithelial cell; test: as above; settings: for Average survival rate at 24 hours / Average survival rate after preservation for 24 hours: normal temperature (22° C.); for Average survival rate at 72 hours / Average survival rate after preservation for 7 days: refrigerator 4° C.
Description: as §1, §2
The average survival rate (%) of cells was determined in the same manner as in Experimental Example (1-1-1) except that dextran sulfate (dextran sulfate special grade reagent available from NACALAI TESQUE, INC.) was used instead of sodium alginate and the conditions were as shown in Table 3. The results are of N=4.
The average survival rate (%) of cells was determined in the same manner as in Experimental Example (1-2-1) except that the preservation conditions were changed to leaving still for 72 hours in a refrigerator at a set temperature of 4° C. and to conditions shown in Table 4. The results are of N=3 in the case of using a serum-free cell culture solution, and are of N=4 in the case of using a Ringer's solution.
The average survival rate (%) of cells was determined in the same manner as in Experimental Example (1-1-1) except that heparin sodium (Heparin Na Mochida, unfractionated heparin, available from Mochida Pharmaceutical Co., Ltd.) was used instead of alginic acid and the conditions were as shown in Table 5. The results are of N=4.
The average survival rate (%) of cells was determined in the same manner as in Experimental Example (1-3-1) except that the preservation conditions were changed to leaving still for 72 hours in a refrigerator at a set temperature of 4° C. and to conditions shown in Table 6. The results are of N=4.
The average survival rate (%) of cells was determined in the same manner as in Experimental Example (1-3-2) except that urinastatin (Miraclid injection solution, containing 2.5 million units, available from Mochida Pharmaceutical Co., Ltd.) was used as a proteolytic enzyme inhibitor instead of heparin sodium and the conditions were as shown in Table 7. The results are of N=4. “Unit (U)” in the unit of concentration (units/mL) of inhibitor a in Table 7 can be measured, for example, by the quantitative method of urinastatin in the Japanese Pharmacopoeia 15th revision. Specifically, absorbance at 405 nm of a sample solution is measured with a UV 240 spectrophotometer, and concentration of urinastatin can be calculated from a calibration curve prepared in advance. […]

[5] = tested on: Rat corneal epithelial cell; test: Cell dormancy effect: cell cycle analysis by flow cytometry; settings: Na alginate 2.5 mg/mL (Wako first grade, 120 mPa·s); serum-free cell culture solution; cultured 48 hours at 37° C.
Description: Sodium alginate (sodium alginate first grade reagent, available from FUJIFILM Wako Pure Chemical Corporation, viscosity of 1% aqueous solution is 120 mPa·s at 20° C.), DS (the same as in Experimental Example 1), or sodium heparin (the same as in Experimental Example 1) was used as an active ingredient in the cell treatment agent, and whether cell dormancy occurs or not by action of the active ingredient was examined by comparing the activities of cell division and proliferation which are the most general cell activities in the following manner.
The cell cycle was analyzed by flow cytometry according to the method described in known literature (Piotr Pozarowski and Zbigniew Darzynkiewicz, “Analysis of Cell Cycle by Flow Cytometry,” Methods in Molecular Biology, vol. 281: Checkpoint Controls and Cancer, Volume 2), and frequency of cell division and proliferation was compared between different active ingredients of the cell treatment agent. A specific method is as follows. Using a normal serum-free cell culture solution as a conditioning solution (comparison reference (a)), (b) a cell preservation solution in which sodium alginate (Na alginate) is added to the conditioning solution in a concentration of 2.5 mg/ml, (c) a cell preservation solution in which DS is added to the conditioning solution in a concentration of 0.1 mg/ml, and (d) a cell preservation solution in which heparin sodium (heparin Na) is added to the conditioning solution in a concentration of 50 units/ml, were prepared. To these cell preservation solutions, rat corneal epithelial cells were added at a cell concentration of 10^5 cells/ml and cultured for 48 hours under normal cell culture conditions (37° C., CO2 concentration of 5%, humidity of 100%). The number of cells in each culture was determined by cell cycle analysis using flow cytometry to determine the number of cells in each cell cycle, and the percentage of cells in the S phase, G2 phase, and M phase, which are considered as the periods of the cell division and proliferation process, was compared with the percentage of cells in the G0 phase and G1 phase, which are considered as other periods. The results are of N=4.

[6] = Na alginate 0.63 mg/mL, Ringer's solution
[7] = Na alginate 0.63 mg/mL, serum-free cell culture solution
[8] = Na alginate 2.5 mg/mL, Ringer's solution
[9] = Na alginate 2.5 mg/mL, serum-free cell culture solution
[10] = Na alginate 5 mg/mL, serum-free cell culture solution
[11] = Sodium alginate 0.5 mg/ml, Ringer's solution
[12] = Sodium alginate 2.5 mg/ml, Ringer's solution
[13] = Sodium alginate 50 mg/ml, Ringer's solution

N=C(N)c1ccc2cc(OC(=O)c3ccc(N=C(N)N)cc3)ccc2c1 [inhibitor b, nafamostat mesilate]
Average survival rate at 48 hours [1]: 43%

dextran [reference compound]
Detachment and suspension of adherent cells after replacement [2]: not detached and suspended in any of the cases

low molecular weight heparin sodium [reference compound]
Effect of improving cell viability (cell protective effect) ([3]; Chinese hamster fibroblasts, same preservation experiments, values not given): the cell protective effect was observed
Effect of improving cell viability (cell protective effect) ([4]; rat corneal epithelial cells, same experiment as for heparin sodium, values not given): the cell protective effect was observed

sodium alginate [Na alginate]
Average survival rate at 24 hours ([3]; Na alginate 0.63 mg/mL): 56%
Average survival rate at 72 hours ([3]; Na alginate 0.63 mg/mL): 73%
Average survival rate at 24 hours ([3]; Na alginate 1.25 mg/mL): 57%
Average survival rate at 24 hours ([3]; Na alginate 2.5 mg/mL): 60%
Average survival rate at 72 hours ([3]; Na alginate 2.5 mg/mL): 77%
Average survival rate at 72 hours ([3]; Na alginate 5 mg/mL): 70%
Percentages of cells of each cell cycle: G0 phase + G1 phase [5]: 88.1%
Percentages of cells of each cell cycle: S phase + G2 phase + M phase [5]: 10.1%
Average survival rate at 24 hours [4, 6]: 52%
Average survival rate at 72 hours [4, 6]: 68%
Average survival rate at 24 hours [4, 7]: 60%
Average survival rate at 72 hours [4, 7]: 77%
Average survival rate at 24 hours ([4]; Na alginate 1.25 mg/mL, Ringer's solution): 51%
Average survival rate at 24 hours [4, 8]: 53%
Average survival rate at 72 hours [4, 8]: 72%
Average survival rate at 24 hours [4, 9]: 70%
Average survival rate at 72 hours [4, 9]: 80%
Average survival rate at 72 hours ([4]; Na alginate 5 mg/mL, Ringer's solution): 64%
Average survival rate at 24 hours [4, 10]: 74%
Average survival rate at 72 hours [4, 10]: 70%

sodium alginate [Sodium alginate 30 mPa · s (1% aqueous solution, 20° C.)]
Average survival rate after preservation for 24 hours ([4]; Sodium alginate 0.2 mg/ml, Ringer's solution): 50%
Average survival rate after preservation for 7 days [4, 11]: 51%
Average survival rate after preservation for 24 hours ([4]; Sodium alginate 1 mg/ml, Ringer's solution): 54%
Average survival rate after preservation for 7 days [4, 12]: 56%

sodium alginate [Sodium alginate 30 mPa · s (10% aqueous solution, 20° C.)]
Average survival rate after preservation for 7 days [4, 12]: 54%
Average survival rate after preservation for 7 days ([4]; Sodium alginate 10 mg/ml, Ringer's solution): 69%
Average survival rate after preservation for 24 hours ([4]; Sodium alginate 20 mg/ml, Ringer's solution): 46%
Average survival rate after preservation for 24 hours [4, 13]: 50%
Average survival rate after preservation for 7 days [4, 13]: 72%

sodium alginate [Sodium alginate 120 mPa · s (1% aqueous solution, 20° C.)]
Average survival rate after preservation for 24 hours ([4]; Sodium alginate 0.1 mg/ml, Ringer's solution): 62%
Average survival rate after preservation for 7 days [4, 11]: 53%
Average survival rate after preservation for 24 hours [4, 12]: 59%
Average survival rate after preservation for 7 days [4, 12]: 52%

B1: urinastatin (protein, UniProt P02760 206-352, looked up)
Inter-alpha-trypsin inhibitor …: AVLPQEEEGSGGGQLVTEVTKKEDSCQLGYSAGPCMGMTSRYFYNGTSMACETFQYGGCMGNGNNFVTEKECLQTCRTVAACNLPIVRGPCRAFIQLWAFDAVKGKCVLFPYGGCQGNGNKFYSEKECREYCGVPGDGDEELLRFSN
modifications: Inter-alpha-trypsin inhibitor light chain
Average survival rate at 72 hours ([4]; inhibitor a 5 units/mL, Ringer's solution): 70%
